In the assay the target is T1, GIPR (CHO-K1-hGIPR cells) (Homo sapiens, UniProt P48546).
T1 construct: host or cells: CHO-K1
T1 sequence (P48546 22-466): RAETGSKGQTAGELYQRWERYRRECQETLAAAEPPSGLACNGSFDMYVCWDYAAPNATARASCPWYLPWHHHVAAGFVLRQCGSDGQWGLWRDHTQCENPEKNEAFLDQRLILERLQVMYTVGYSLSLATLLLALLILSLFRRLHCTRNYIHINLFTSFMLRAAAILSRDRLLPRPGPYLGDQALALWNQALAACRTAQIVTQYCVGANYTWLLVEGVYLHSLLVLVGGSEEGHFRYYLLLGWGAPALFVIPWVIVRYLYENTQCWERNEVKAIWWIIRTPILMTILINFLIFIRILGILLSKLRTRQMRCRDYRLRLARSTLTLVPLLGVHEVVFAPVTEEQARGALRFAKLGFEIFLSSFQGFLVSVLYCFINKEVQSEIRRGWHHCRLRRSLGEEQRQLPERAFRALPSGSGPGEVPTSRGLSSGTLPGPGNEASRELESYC
Put plainly: FACS binding assay. The settings on record: competition with 20 nM GIP-057, 4° C., 1 hour. As for the experimental part:
In order to determine binding of compounds according to the present invention to GIPR-expressing cells, a FACS binding assay was established.
CHO-K1-hGIPR cells (GenScript Biotech, #M00486) were cultured in Ham's F12 medium (Sigma-Aldrich, #N4888) including 10% fetal calf serum (FCS), 2 mM L-glutamine, 100 U/mL penicillin, 100 μg/mL streptomycin, 200 μg/mL Zeocin and 100 μg/mL HygromycinB. Cells were detached with Accutase (Biolegend, #BLD-423201) and washed in FACS buffer (PBS including 1% FCS). Cells were diluted in FACS buffer to a final concentration of 500.000 cells per mL. 200 μL of the cell suspension were transferred to a u-shaped non-binding 96-well plate (Greiner) and cells were washed in ice-cold FACS buffer.
Cells were washed twice in FACS buffer. An additional incubation step with 1 μg/mL APC-Streptavidin (Miltenyi; #130-106-791) in 50 μL FACS buffer for 30 min on ice was performed followed by two washes with FACS buffer.
Cells were analyzed in an Attune NxT flow cytometer. Median fluorescence intensities (MFI) of the APC/Cy5-channel were calculated by Attune NxT software. MFI values were plotted against peptide concentration and four parameter logistic (4PL) curve fitting and EC50/pEC50 or IC50/pIC50 calculations were performed using ActivityBase software.

Setting [1] is: read-out: pIC50 Category (converted).

Like-named read-outs stand apart in the source and are kept apart here. *1 amine or outer side, *2 acyl side, *3 side chain or, on linkers, in order; H or OH if unused. Where a SMILES comes first, the peptide text is derived from it. Bridges are numbered along the chain shown (N, C = ends). Side-chain parts run from the residue outwards. [ ]: non-standard residue; d: D form. The star is where a group is joined. NH(1-deoxy-D-glucityl) = OC[C@@H](O)[C@@H](O)[C@H](O)[C@@H](O)CN*; X21 = O=C(CCP(=O)(O)CN1CCN(CP(=O)(O)CO)CCN(CP(=O)(O)CO)CC1)*; DOTA = O=C(O)CN1CCN(CC(=O)O)CCN(CC(=O)*)CCN(CC(=O)O)CC1; X9 = O=C(O)CN1CCN(CC(=O)O)CCN([C@H](CCC(=O)*)C(=O)O)CC1; Trp(5-Cl) = N[C@@H](Cc1c[nH]c2ccc(Cl)cc12)C(=O)O; Pyridine(2,6-diCH2) = c1cc(C[*:1])nc(C[*:2])c1; Pro(4R-NH2) = N[C@H]1CN[C@H](C(=O)O)C1; Glutaryl = O=C(CCCC(=O)[*:2])[*:1]; PEG6 = NCCOCCOCCOCCOCCOCCOCCC(=O)O; Hyp = O=C(O)[C@@H]1C[C@@H](O)CN1; X1 = O=C(CN1CCC(N[*:1])CC1)[*:2]; X30 = NCCNCC(CNCCN)C(=O)*; hSer = N[C@@H](CCO)C(=O)O; Api = NC1(C(=O)O)CCNCC1; Thp = NC1(C(=O)O)CCOCC1

For `CC[C@H](C)[C@@H]1NC(=O)[C@H](CC(C)C)NC(=O)C2(CCN(C(=O)CCP(=O)(O)CN3CCN(CP(=O)(O)CO)CCN(CP(=O)(O)CO)CC3)CC2)NC(=O)[C@@H](NC(=O)[C@@H](CC(C)C)NC(=O)[C@H](CCC(=O)O)NC(=O)[C@@H]2C[C@@H](N)CN2C(=O)[C@H](Cc2c[nH]c3ccc(Cl)cc23)NC(=O)[C@H](Cc2c[nH]c3ccccc23)NC(=O)[C@H](CC(=O)O)NC(=O)CCCC(=O)NC[C@H](O)[C@@H](O)[C@H](O)[C@H](O)CO)CSCc2cccc(n2)CSC[C@@H](C(=O)NC2CCN(CC(=O)N[C@H](CCC(=O)NC[C@H](O)[C@@H](O)[C@H](O)[C@H](O)CO)C(N)=O)CC2)NC1=O` [GIP-029, AGLU-Glutar-Asp-Trp-5Clw-Tap-Glu-leu-[Cys(2Lut)-Apc(NOPO)-Leu-Ile-Cys]-APAc-glu(AGLU)-NH2] ({NH(1-deoxy-D-glucityl)-Glutaryl}-DW[Trp(5-Cl)][Pro(4R-NH2)]E[dL]C[Api](X21)LIC[X1][dE](NH(1-deoxy-D-glucityl))-NH2; linker 7-11 via Pyridine(2,6-diCH2)), the IC50 (pIC50 Category) is under 10 nM.

For `CC[C@H](C)[C@@H]1NC(=O)[C@H](CC(C)C)NC(=O)C2(CCN(C(=O)C(CNCCN)CNCCN)CC2)NC(=O)[C@@H](NC(=O)[C@@H](CC(C)C)NC(=O)[C@H](CCC(=O)O)NC(=O)[C@@H]2C[C@@H](N)CN2C(=O)[C@H](Cc2c[nH]c3ccc(Cl)cc23)NC(=O)[C@H](Cc2c[nH]c3ccccc23)NC(=O)[C@H](CC(=O)O)NC(=O)CCCC(=O)NC[C@H](O)[C@@H](O)[C@H](O)[C@H](O)CO)CSCc2cccc(n2)CSC[C@@H](C(=O)NC2CCN(CC(=O)N[C@H](CCC(=O)NC[C@H](O)[C@@H](O)[C@H](O)[C@H](O)CO)C(N)=O)CC2)NC1=O` [GIP-030, AGLU-Glutar-Asp-Trp-5Clw-Tap-Glu-leu-[Cys(2Lut)-Apc(N4Ac)-Leu-Ile-Cys]-APAc-glu(AGLU)-NH2] ({NH(1-deoxy-D-glucityl)-Glutaryl}-DW[Trp(5-Cl)][Pro(4R-NH2)]E[dL]C[Api](X30)LIC[X1][dE](NH(1-deoxy-D-glucityl))-NH2; linker 7-11 via Pyridine(2,6-diCH2)), the IC50 under setting [1] is under 10 nM.

As for `CC[C@H](C)[C@@H]1NC(=O)[C@H](CC(C)C)NC(=O)C2(CCN(C(=O)CNC(=O)CC[C@H](C(=O)O)N3CCN(CC(=O)O)CCN(CC(=O)O)CC3)CC2)NC(=O)[C@@H](NC(=O)[C@@H](CC(C)C)NC(=O)[C@H](CCC(=O)O)NC(=O)[C@@H]2C[C@@H](N)CN2C(=O)[C@H](Cc2c[nH]c3ccc(Cl)cc23)NC(=O)[C@H](Cc2c[nH]c3ccccc23)NC(=O)[C@H](CC(=O)O)NC(=O)CCCC(=O)NC[C@H](O)[C@@H](O)[C@H](O)[C@H](O)CO)CSCc2cccc(n2)CSC[C@@H](C(=O)NC2CCN(CC(=O)N[C@H](CCC(=O)NC[C@H](O)[C@@H](O)[C@H](O)[C@H](O)CO)C(N)=O)CC2)NC1=O` [GIP-031, AGLU-Glutar-Asp-Trp-5Clw-Tap-Glu-leu-[Cys(2Lut)-Apc(NODAGA-Gly)-Leu-Ile-Cys]-APAc-glu(AGLU)-NH2] ({NH(1-deoxy-D-glucityl)-Glutaryl}-DW[Trp(5-Cl)][Pro(4R-NH2)]E[dL]C[Api]([Gly-X9])LIC[X1][dE](NH(1-deoxy-D-glucityl))-NH2; linker 7-11 via Pyridine(2,6-diCH2)), the IC50 under setting [1] is under 10 nM.

Turning to `CC[C@H](C)[C@@H]1NC(=O)[C@H](CC(C)C)NC(=O)C2(CCN(C(=O)CN3CCN(CC(=O)O)CCN(CC(=O)O)CCN(CC(=O)O)CC3)CC2)NC(=O)[C@@H](NC(=O)[C@@H](CC(C)C)NC(=O)[C@H](CCC(=O)O)NC(=O)[C@@H]2C[C@@H](N)CN2C(=O)[C@H](Cc2c[nH]c3ccc(Cl)cc23)NC(=O)[C@H](Cc2c[nH]c3ccccc23)NC(=O)[C@H](CC(=O)O)NC(=O)CN2CCC(NC(=O)CCCC(=O)NC[C@H](O)[C@@H](O)[C@H](O)[C@H](O)CO)CC2)CSCc2cccc(n2)CSC[C@@H](C(=O)N[C@H](CCC(=O)NC[C@H](O)[C@@H](O)[C@H](O)[C@H](O)CO)C(N)=O)NC1=O` [GIP-033, AGLU-Glutar-APAc-Asp-Trp-5Clw-Hyp-Glu-leu-[Cys(2Lut)-Apc(DOTA)-Leu-Ile-Cys]-glu(AGLU)-NH2] ({NH(1-deoxy-D-glucityl)-Glutaryl}-[X1]DW[Trp(5-Cl)][Pro(4R-NH2)]E[dL]C[Api](DOTA)LIC[dE](NH(1-deoxy-D-glucityl))-NH2; linker 8-12 via Pyridine(2,6-diCH2)), the IC50 under setting [1] was under 10 nM.

Turning to `CC[C@H](C)[C@@H]1NC(=O)[C@H](CC(C)C)NC(=O)C2(CCN(C(=O)CN3CCN(CC(=O)O)CCN(CC(=O)O)CCN(CC(=O)O)CC3)CC2)NC(=O)[C@@H](NC(=O)[C@@H](CC(C)C)NC(=O)[C@H](CCC(=O)O)NC(=O)[C@@H]2C[C@@H](N)CN2C(=O)[C@H](Cc2c[nH]c3ccc(Cl)cc23)NC(=O)[C@H](Cc2c[nH]c3ccccc23)NC(=O)[C@H](CCO)NC(=O)CCCC(=O)NC[C@H](O)[C@@H](O)[C@H](O)[C@H](O)CO)CSCc2cccc(n2)CSC[C@@H](C(=O)NC2CCN(CC(=O)N[C@H](CCC(=O)NC[C@H](O)[C@@H](O)[C@H](O)[C@H](O)CO)C(N)=O)CC2)NC1=O` [GIP-034, AGLU-Glutar-Hse-Trp-5Clw-Tap-Glu-leu-[Cys(2Lut)-Apc(DOTA)-Leu-Ile-Cys]-APAc-glu(AGLU)-NH2] ({NH(1-deoxy-D-glucityl)-Glutaryl}-[hSer]W[Trp(5-Cl)][Pro(4R-NH2)]E[dL]C[Api](DOTA)LIC[X1][dE](NH(1-deoxy-D-glucityl))-NH2; linker 7-11 via Pyridine(2,6-diCH2)), the IC50 under setting [1] is under 10 nM.

Turning to `CC[C@H](C)[C@@H]1NC(=O)[C@H](CC(C)C)NC(=O)C2(CCN(C(=O)CN3CCN(CC(=O)O)CCN(CC(=O)O)CCN(CC(=O)O)CC3)CC2)NC(=O)[C@@H](NC(=O)[C@H](CC(C)C)NC(=O)[C@H](CCC(=O)O)NC(=O)[C@@H]2C[C@@H](N)CN2C(=O)[C@H](Cc2c[nH]c3ccc(Cl)cc23)NC(=O)[C@H](Cc2c[nH]c3ccccc23)NC(=O)[C@H](CC(=O)O)NC(=O)CCCC(=O)NC[C@H](O)[C@@H](O)[C@H](O)[C@H](O)CO)CSCc2cccc(n2)CSC[C@@H](C(=O)NC2CCN(CC(=O)N[C@H](CCC(=O)NC[C@H](O)[C@@H](O)[C@H](O)[C@H](O)CO)C(N)=O)CC2)NC1=O` [GIP-035, AGLU-Glutar-Asp-Trp-5Clw-Tap-Glu-Leu-[Cys(2Lut)-Apc(DOTA)-Leu-Ile-Cys]-APAc-glu(AGLU)-NH2] ({NH(1-deoxy-D-glucityl)-Glutaryl}-DW[Trp(5-Cl)][Pro(4R-NH2)]ELC[Api](DOTA)LIC[X1][dE](NH(1-deoxy-D-glucityl))-NH2; linker 7-11 via Pyridine(2,6-diCH2)), the IC50 under setting [1] was under 10 nM.

Turning to `CC[C@H](C)[C@@H]1NC(=O)[C@H](CC(C)C)NC(=O)C2(CCOCC2)NC(=O)[C@@H](NC(=O)[C@@H](CC(C)C)NC(=O)[C@H](CCC(=O)O)NC(=O)[C@@H]2C[C@@H](O)CN2C(=O)[C@H](Cc2c[nH]c3ccc(Cl)cc23)NC(=O)[C@H](Cc2c[nH]c3ccccc23)NC(=O)[C@H](CC(=O)O)NC(=O)[C@@H](CCC(=O)NC[C@H](O)[C@@H](O)[C@H](O)[C@H](O)CO)NC(=O)CN2CCN(CC(=O)O)CCN(CC(=O)O)CCN(CC(=O)O)CC2)CSCc2cccc(n2)CSC[C@@H](C(=O)NC2CCN(CC(=O)N[C@H](CCC(=O)NC[C@H](O)[C@@H](O)[C@H](O)[C@H](O)CO)C(N)=O)CC2)NC1=O` [GIP-036, DOTA-glu(AGLU)-Asp-Trp-5Clw-Hyp-Glu-leu-[Cys(2Lut)-Thp-Leu-Ile-Cys]-APAc-glu(AGLU)-NH2] ({DOTA}-[dE](NH(1-deoxy-D-glucityl))DW[Trp(5-Cl)][Hyp]E[dL]C[Thp]LIC[X1][dE](NH(1-deoxy-D-glucityl))-NH2; linker 8-12 via Pyridine(2,6-diCH2)), the IC50 under setting [1] is under 10 nM.

For the molecule `CC[C@H](C)[C@@H]1NC(=O)[C@H](CC(C)C)NC(=O)C2(CCOCC2)NC(=O)[C@@H](NC(=O)[C@@H](CC(C)C)NC(=O)[C@H](CCC(=O)O)NC(=O)[C@@H]2C[C@@H](N)CN2C(=O)[C@H](Cc2c[nH]c3ccc(Cl)cc23)NC(=O)[C@H](Cc2c[nH]c3ccccc23)NC(=O)[C@H](CC(=O)O)NC(=O)[C@@H](CCC(=O)NC[C@H](O)[C@@H](O)[C@H](O)[C@H](O)CO)NC(=O)CCOCCOCCOCCOCCOCCOCCNC(=O)CN2CCN(CC(=O)O)CCN(CC(=O)O)CCN(CC(=O)O)CC2)CSCc2cccc(n2)CSC[C@@H](C(=O)NC2CCN(CC(=O)N[C@H](CCC(=O)NC[C@H](O)[C@@H](O)[C@H](O)[C@H](O)CO)C(N)=O)CC2)NC1=O` [GIP-037, DOTA-PEG6-glu(AGLU)-Asp-Trp-5Clw-Tap-Glu-leu-[Cys(2Lut)-Thp-Leu-Ile-Cys]-APAc-glu(AGLU)-NH2] ({DOTA-PEG6}-[dE](NH(1-deoxy-D-glucityl))DW[Trp(5-Cl)][Pro(4R-NH2)]E[dL]C[Thp]LIC[X1][dE](NH(1-deoxy-D-glucityl))-NH2; linker 8-12 via Pyridine(2,6-diCH2)), the IC50 under setting [1] is under 10 nM.

The record behind these values is US20250296971A1, “GASTRIC INHIBITORY PEPTIDE RECEPTOR LIGANDS” (priority 2021, published 2025).
